Reference: patent publication US20210395327A1, “Growth Hormone-Releasing Hormone Antagonists and Uses Thereof” (United States Government As Represented By The Department …, priority 2019, published 2021)
pIC50: −log10 of the molar value. Like-named read-outs stand apart in the source and are kept apart here. Non-standard residues stand in square brackets, D forms with d. Residues, ends and D or L forms follow the SMILES beside them. *: point of attachment. Phe(4-Cl) = N[C@@H](Cc1ccc(Cl)cc1)C(=O)O; hArg = N=C(N)NCCCC[C@H](N)C(=O)O; 12Ado = NCCCCCCCCCCCC(=O)O; Nle = CCCC[C@H](N)C(=O)O; Abu = CC[C@H](N)C(=O)O; PhAc = O=C(Cc1ccccc1)*; Aoc = NCCCCCCCC(=O)O

Experiments:
[1] = target: T1, membrane GHRH-receptors on human anterior pituitary cells (Homo sapiens, UniProt Q02643); assay: Receptor binding, displacement of 125I-[His1,Nle27]-hGH-RH(1-32)NH2 on human pituitary membranes
T1 construct: Human pituitary was purchased from the National Hormone and Peptide Program; tissue National Hormone and Peptide Program; host or cells: human pituitary (membrane fractions)
T1 sequence (Q02643 23-423): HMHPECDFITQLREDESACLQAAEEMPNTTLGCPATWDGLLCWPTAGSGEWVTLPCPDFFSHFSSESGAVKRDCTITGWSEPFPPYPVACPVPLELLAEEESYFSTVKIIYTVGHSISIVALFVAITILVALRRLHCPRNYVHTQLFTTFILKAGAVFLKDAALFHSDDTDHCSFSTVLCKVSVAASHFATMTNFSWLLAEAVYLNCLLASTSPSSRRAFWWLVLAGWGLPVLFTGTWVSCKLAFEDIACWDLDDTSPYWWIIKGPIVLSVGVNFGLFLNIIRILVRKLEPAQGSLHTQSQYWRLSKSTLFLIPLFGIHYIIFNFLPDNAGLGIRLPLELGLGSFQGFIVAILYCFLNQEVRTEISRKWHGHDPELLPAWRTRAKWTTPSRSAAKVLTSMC
Protocol: Receptor binding affinities in vitro. Preparation of human pituitary membrane fractions and receptor binding of analogs of GH-RH were performed (Halmos G, Rekasi Z, Szoke B, Schally A V. (1993) Receptor 3:87-97). Human pituitary was purchased from the National Hormone and Peptide Program. […] Relative affinities compared to hGH-RH(1-29)NH2 were calculated as the ratio of IC50 (dose causing 50% inhibition of specific binding to receptors) of the tested peptides to the IC50 of hGH-RH(1-29)NH2. The values were calculated from technical duplicate tubes.
Nineteen new AVR analogs of GHRH were tested in the receptor binding assay. Table 6 presents the IC50 values of GHRH antagonists to membrane GHRH-receptors binding on human anterior pituitary cells.

[2] = system: KATOIII stomach cancer cells; assay: In vitro cell viability, KATOIII; format: cell-based, human; details: antagonist 5 μM for 72 h, cell proliferation assay; MIA602 = 1
Protocol: The inhibitory effects of the various synthesized GHRH antagonists were tested in cell proliferation assays in various human cancer cell lines including stomach cancer (KATOIII, N87), colon cancer (HT-29), urothelial cancer (J82, RT4), pancreatic cancer (PANC-1, CFPAC-1), prostatic cancer (PC3), breast cancer (MX-1, HCC1806), ovarian cancer (SK-OV-3, OVCAR-3) and lung cancer (HCC827, H460).
Cell culture. Human cancer cell lines including pancreatic (PANC-1 and CFPAC-1), lung (HCC827 and H460), stomach (NCI-N87 and KATOIII), urothelial (J82, RT4), prostatic (PC3), breast (MX-1 and HCC 1806), colorectal (HT-29), and ovarian (SK-OV-3 and OVCAR-3) were obtained from the American Type Culture Collection (ATCC) and cultured at 37° C. in a humidified 95% air/5% CO2 atmosphere in the medium recommended by ATCC.
In vitro cell viability. Cell viability was analyzed as follows: cancer cells including pancreatic (PANC-1 and CFPAC-1), lung (HCC827 and H460), stomach (NCI-N87 and KATOIII), urothelial (J82, RT4), prostatic (PC3) and breast (MX-1 and HCC 1806), colorectal (HT-29) and ovarian (SK-OV-3 and OVCAR-3) were grown on 96 well plates to ˜60% confluence, the cells were starved for 24 h in culture medium containing 0.5% FBS. Cells were then treated with GHRH antagonists MIA602 AVR compounds at concentrations of 1, 2.5 or 5 μM, or vehicle (0.1% DMSO) in quintuplicates for 72 hours. The medium was replaced every 48 hours. Cell viability was measured using CellTiter 96 aqueous one solution kit (Promega). Inhibitory effects of tested AVR compounds in comparison to that of MIA602 are presented as inhibitory potency.
Inhibitory effects of selected AVR compounds in comparison to that of MIA602 are presented as inhibitory potency (e.g., percentage of inhibition). […] The cell lines tested including lung cancer HCC827 (FIG. 2A), pancreatic cancer CFPAC-1 (FIG. 2B), stomach cancer N87 (FIG. 2C), colon cancer HT-29 (FIG. 2D), breast cancers MX-1 and HCC1806 (FIGS. 2 E, F). Based on the results of cell proliferation assay after cancer cells were treated with antagonist at concentration of 5 μM for 72H, the relative inhibitory potency of AVR antagonists in comparison to MIA-602 is summarized in Table 3 A and B. Over 60 AVR compounds were tested in 12 cancer cell lines.

For CCCC[C@H](NC(=O)[C@@H](NC(=O)[C@H](CC(=O)O)NC(=O)[C@H](CCC(N)=O)NC(=O)[C@H](CC(C)C)NC(=O)[C@H](CC(C)C)NC(=O)[C@H](CCCCN)NC(=O)[C@H](CCCNC(=N)N)NC(=O)[C@H](C)NC(=O)[C@H](CO)NC(=O)[C@H](CC(C)C)NC(=O)[C@H](CCC(N)=O)NC(=O)[C@H](CC)NC(=O)[C@H](CC(C)C)NC(=O)[C@@H](NC(=O)[C@H](CCCCN)NC(=O)[C@H](CCCNC(=N)N)NC(=O)[C@H](Cc1ccc(OC)cc1)NC(=O)[C@H](CCCCNC(=N)N)NC(=O)[C@H](CC(N)=O)NC(=O)[C@@H](NC(=O)[C@H](Cc1ccc(Cl)cc1)NC(=O)[C@@H](NC(=O)[C@H](C)NC(=O)[C@H](CC(=O)O)NC(=O)[C@@H](CCCNC(=N)N)NC(=O)[C@H](Cc1ccc(O)cc1)NC(=O)CCCCCCCCCCCNC(=O)Cc1ccccc1)[C@@H](C)CC)[C@@H](C)O)C(C)C)[C@@H](C)CC)C(=O)N[C@H](CCCNC(=N)N)C(=O)N[C@@H](CCCCNC(=N)N)C(=O)NCCCCCCCCCCCC(N)=O [AVR-332] ({PhAc-12Ado}-Y[dR]DAI[Phe(4-Cl)]TN[hArg]Y(Me)RKVL[Abu]QLSARKLLQDI[Nle][dR][hArg][12Ado]-NH2), the pIC50 ([1]; membrane receptors on human anterior pituitary cells, mean of two to three determinations, read-out: IC50) was 9.47 and the “relative inhibitory potency in comparison to MIA-602, Stomach KATOIII” value [2] was 1.643.
With CCCC[C@H](NC(=O)[C@@H](NC(=O)[C@H](CC(=O)O)NC(=O)[C@H](CCC(N)=O)NC(=O)[C@H](CC(C)C)NC(=O)[C@H](CC(C)C)NC(=O)[C@H](CCCCN)NC(=O)[C@H](CCCNC(=N)N)NC(=O)[C@H](C)NC(=O)[C@H](CO)NC(=O)[C@H](CC(C)C)NC(=O)[C@H](CCC(N)=O)NC(=O)[C@H](CC)NC(=O)[C@H](CC(C)C)NC(=O)[C@@H](NC(=O)[C@H](CCCCN)NC(=O)[C@H](CCCNC(=N)N)NC(=O)[C@H](Cc1ccc(OC)cc1)NC(=O)[C@H](CCCCNC(=N)N)NC(=O)[C@H](CC(N)=O)NC(=O)[C@@H](NC(=O)[C@H](Cc1ccc(Cl)cc1)NC(=O)[C@@H](NC(=O)[C@H](C)NC(=O)[C@H](CC(=O)O)NC(=O)[C@@H](CCCNC(=N)N)NC(=O)[C@H](Cc1ccc(O)cc1)NC(=O)CCCCCCCCCCCNC(=O)Cc1ccccc1)[C@@H](C)CC)[C@@H](C)O)C(C)C)[C@@H](C)CC)C(=O)N[C@H](CCCNC(=N)N)C(=O)N[C@@H](CCCCNC(=N)N)C(=O)NCCCCCCCC(=O)NC [AVR-321, PhAC-Ada-Tyr-DArg-Asp-Ala-Ile-Cpa-Thr-Asn-Har-Tyr(Me)-Arg-Lys-Val-Leu-Abu-Gln-Leu-Ser-Ala-Arg-Lys-Leu-Leu-Gln-Asp-Ile-Nle-DArg-Har-Aoc-NHCH3] ({PhAc-12Ado}-Y[dR]DAI[Phe(4-Cl)]TN[hArg]Y(Me)RKVL[Abu]QLSARKLLQDI[Nle][dR][hArg][Aoc]-NHMe) the pIC50 [1] was 9.64 and the “relative inhibitory potency in comparison to MIA-602, Stomach KATOIII” value [2] was 1.414.
